What was measured:
Ts65Dn mice [1] = experiment: Working memory (radial maze), Down syndrome model; format: in vivo, mouse; conditions: 0.06 μg/ml in drinking water
Protocol: The working memory task was performed using 8-arm radial mazes described in Example 3a. Food restriction and habituation procedure were performed as described in Example 3a. The working memory procedure began 24 h after the last habituation session. Each mouse was submitted to 15 daily learning sessions (5 blocks of 3 days) made of 23 trials each. Six arms out of eight were used during the working memory test (3 pairs (A, B or C) of adjacent arms).
At the beginning of each daily session, the mouse was placed at the center of the maze with no access to the arms. The doors of the first pair of arms then opened giving access to both arms of the pair. Once the mouse had visited one of the arms and goes back to the central platform, the door closed, and the animal was confined in the central platform for 10 sec (inter-trial interval, ITI) before two doors opened again giving access to a pair of arms. Once the animal had visited one of the arms and returns to the central platform the doors close again for 10 sec before the next trial. Within each session, the mouse was submitted to repeated and successive presentations of the 3 pairs of arms one at a time. At the first presentation of each arm pair the food reward was present in both arms. […]

Ts65Dn mice [2] = experiment: Declarative/relational memory (radial maze flexibility test), Down syndrome model; format: in vivo, mouse; conditions: 0.6 μg/ml in drinking water
Protocol: The relational memory task was performed using 8-arm radial mazes. The diameter of the central platform was 30 cm and the arms were 55 cm length; 10 cm width and 100 cm height from the floor. Each arm was equipped with a retractable door at its entrance and with a food-pellet delivering system at its end. Each maze was placed in a room containing visual cues on the walls to enable spatial discrimination. There was no intra-maze cue. Each maze was fully automated by videotracking (IMETRONIC Pessac—France). This allowed to automatically control the doors of the arms (opening/closure) and food delivery according to the location of the mouse.
Food-restricted mice (85% of their original body weight all throughout the study) were first submitted to 3 sessions of habituation to the mazes. During each habituation session, the mouse freely explored the maze until it visited each of the 8 arms, or 30 min elapsed. At the beginning of each habituation session, the mouse was placed in the central platform with all the arms closed. […]
The number of correct responses was measured at each session. […]
At the end of the behavioral study, mice were sacrificed, blood and brain samples were collected. 3Bn17MeP was quantified by LC/MS-MS chromatography in both plasma and brain.

[3] = target: T1, Steroid nuclear receptors GR (Homo sapiens, UniProt P04150); experiment: CEREP binding profile: GR
T1 construct: CEREP
Source text: (§1) The CEREP High-throughput profile consists of a broad collection of 80 transmembrane and soluble receptors, ion channels and G-Protein coupled receptors.

in vivo = conditions: both, Sprague-Dawley, rat, 20 mg/kg
Protocol: Blood samples for plasma drug analysis were collected after the last treatment, at 5 and 24 hours post-dose. Quantification was done by LC/MS-MS chromatography.

human CB1 receptor = human CB1 receptor (Homo sapiens, UniProt P21554); experiment: THC-induced decrease of cAMP in CHO-hCB1 cells; format: cell-based; conditions: 1 nM, 10 nM, 100 nM and 1 μM
Protocol: CHO-CB1-C2 cells were treated by concomitantly adding THC and the test compound for 45 minutes. Forskolin (2.5 μM) was also simultaneously added in all the conditions tested to sustain cAMP basal level.
At the end of the treatment, cells were lysed to proceed with the cAMP quantification. All measures were performed in triplicates in one experiment. The quantitative determination of cAMP was performed through a competitive fluorescence immunoassay. Data were expressed as % of Delta Fluorescence (Delta F) that was calculated as follows: Delta F %=(Sample Fluorescence−Negative control Fluorescence)/Negative control Fluorescence.

[4] = 7-day oral safety study in rats; format: in vivo, Sprague-Dawley rats
Protocol: Morbidity/mortality checks were performed twice daily. Clinical observations were performed before the first dosing and then daily. Functional and neurobehavioral tests were performed before the first dosing and on the last day of treatment. Body weight was recorded on Day-1, Day-3, Day-5 and Day-7. Food consumption was measured weekly.
Blood samples for haematology parameters and clinical chemistry analysis were collected on the day of necropsy (Day-8).
Animals were sacrificed on Day-8. Selected organs were weighed, fixed, preserved at necropsy and examined histopathologically.

[5] = target: T2, Steroid nuclear receptors AR (Homo sapiens, UniProt P10275); experiment: Binding: AR
T2 construct: CEREP
Source text: as §1

Sequence of human CB1 receptor (P21554 whole entry): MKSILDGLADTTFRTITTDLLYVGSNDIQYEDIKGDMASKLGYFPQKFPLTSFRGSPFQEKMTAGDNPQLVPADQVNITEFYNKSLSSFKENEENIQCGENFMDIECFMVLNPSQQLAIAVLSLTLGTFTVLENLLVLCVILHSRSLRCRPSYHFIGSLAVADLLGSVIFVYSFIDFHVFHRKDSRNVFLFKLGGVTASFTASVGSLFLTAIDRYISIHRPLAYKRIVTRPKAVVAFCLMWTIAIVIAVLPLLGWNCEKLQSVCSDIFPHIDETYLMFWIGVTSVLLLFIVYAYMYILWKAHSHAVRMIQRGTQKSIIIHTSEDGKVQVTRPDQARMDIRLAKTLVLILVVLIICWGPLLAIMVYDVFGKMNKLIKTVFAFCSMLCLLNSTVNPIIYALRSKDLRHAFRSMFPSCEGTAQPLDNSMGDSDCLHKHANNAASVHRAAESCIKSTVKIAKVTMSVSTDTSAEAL
T2 sequence (P10275 whole entry): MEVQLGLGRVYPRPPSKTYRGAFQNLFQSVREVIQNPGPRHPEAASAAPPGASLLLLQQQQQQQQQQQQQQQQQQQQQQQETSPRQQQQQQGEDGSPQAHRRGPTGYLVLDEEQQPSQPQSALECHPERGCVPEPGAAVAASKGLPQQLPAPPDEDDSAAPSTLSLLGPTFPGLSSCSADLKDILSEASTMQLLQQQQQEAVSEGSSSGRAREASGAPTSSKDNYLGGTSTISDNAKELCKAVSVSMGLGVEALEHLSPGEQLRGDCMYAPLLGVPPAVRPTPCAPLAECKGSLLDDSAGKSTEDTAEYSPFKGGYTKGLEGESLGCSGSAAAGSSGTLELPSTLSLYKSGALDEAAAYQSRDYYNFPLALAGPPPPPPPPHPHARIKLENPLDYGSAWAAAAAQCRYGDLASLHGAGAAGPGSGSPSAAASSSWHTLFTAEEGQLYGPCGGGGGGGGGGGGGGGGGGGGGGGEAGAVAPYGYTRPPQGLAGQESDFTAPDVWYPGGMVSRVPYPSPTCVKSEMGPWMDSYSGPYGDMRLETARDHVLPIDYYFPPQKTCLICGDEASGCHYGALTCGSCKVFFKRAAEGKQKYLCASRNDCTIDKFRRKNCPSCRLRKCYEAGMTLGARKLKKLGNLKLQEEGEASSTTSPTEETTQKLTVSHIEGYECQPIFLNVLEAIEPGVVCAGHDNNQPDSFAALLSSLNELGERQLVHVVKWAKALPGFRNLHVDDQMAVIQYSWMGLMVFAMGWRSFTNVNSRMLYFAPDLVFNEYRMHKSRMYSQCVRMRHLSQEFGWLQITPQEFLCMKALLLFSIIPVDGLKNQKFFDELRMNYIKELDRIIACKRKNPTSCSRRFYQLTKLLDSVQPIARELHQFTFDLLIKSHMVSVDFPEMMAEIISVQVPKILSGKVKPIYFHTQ
T1 sequence (P04150 whole entry): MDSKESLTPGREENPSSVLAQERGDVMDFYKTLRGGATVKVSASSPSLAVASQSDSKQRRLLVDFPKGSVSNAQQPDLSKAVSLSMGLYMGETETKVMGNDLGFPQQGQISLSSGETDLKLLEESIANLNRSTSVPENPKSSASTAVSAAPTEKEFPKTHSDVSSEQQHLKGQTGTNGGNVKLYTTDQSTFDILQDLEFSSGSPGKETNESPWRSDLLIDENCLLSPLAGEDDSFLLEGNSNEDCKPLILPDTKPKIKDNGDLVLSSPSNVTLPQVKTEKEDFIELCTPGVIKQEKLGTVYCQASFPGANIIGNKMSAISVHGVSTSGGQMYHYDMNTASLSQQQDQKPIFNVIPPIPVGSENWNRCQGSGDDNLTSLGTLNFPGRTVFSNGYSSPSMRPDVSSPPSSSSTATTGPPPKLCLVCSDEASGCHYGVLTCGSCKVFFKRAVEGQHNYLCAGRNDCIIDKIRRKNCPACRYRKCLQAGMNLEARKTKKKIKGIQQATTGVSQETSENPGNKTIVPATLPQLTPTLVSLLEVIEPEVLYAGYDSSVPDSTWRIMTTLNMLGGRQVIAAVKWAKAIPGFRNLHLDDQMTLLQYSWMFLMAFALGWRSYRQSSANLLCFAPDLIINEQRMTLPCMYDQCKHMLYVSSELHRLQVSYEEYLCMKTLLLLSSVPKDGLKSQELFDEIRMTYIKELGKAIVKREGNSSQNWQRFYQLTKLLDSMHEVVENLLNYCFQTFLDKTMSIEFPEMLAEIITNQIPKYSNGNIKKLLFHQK

## CC(=O)[C@@]1(C)CC[C@H]2[C@@H]3CC=C4C[C@@H](OCc5ccccc5)CC[C@]4(C)[C@H]3CC[C@@]21C [3Bn17MeP, 3β-benzyloxy, 17α-methyl-pregn-5-en-20-one]
Ts65Dn mice [1]
  Correct responses (working memory): increased correct responses in Ts65Dn as compared to vehicle mice that reached the level of WT
Ts65Dn mice [2]
  Choice accuracy in the flexibility test (declarative/relational memory): enhanced choice accuracy of Ts65Dn mice that reached the level of WT
[3]
  inhibition at 10 µM: -2%
In vivo
  concentration at 5 h: 4650 ng/mL
  concentration at 24 h: 974 ng/mL
Human CB1 receptor
  Effect on inhibition of cAMP induced by THC: does not modify
[4]; 20 mg/kg per os, 7 days
  Histopathological changes: not associated with any histopathological changes
  Total protein level: tendency to lower total protein level
  Triglyceride level: higher triglyceride level
[4]; 20 mg/kg per os, 7 days, females
  Triglyceride level: tendency to a lower triglyceride level
[4]; 20 mg/kg per os, 7 days, males
  Red blood cell counts: slight tendency to a lower red blood cell counts
[4]; 20 mg/kg per os, 7 days, males and females
  White blood cell counts: tendency to a lower white blood cell counts
[4]; 20 mg/kg/day per os, 7 consecutive days
  Signs of toxicity: did not induce any sign of toxicity
[4]; both sexes, Sprague-Dawley, rat, in vivo, oral, 20 mg/kg, repeated treatment at a single dose, 7 days per os, read-out: Maximum tolerated dose (MTD)
  MTD at 7 days: > 20 mg/kg/day
[5]
  inhibition at 10 µM: 16%
